Test results from patent US20240390383A1, “DIOXAZINES AND THEIR USE IN TREATMENT OF GBA-RELATED DISEASES” (ZEVRA DENMARK A/S, priority 2021, published 2024).

Biological target: T1, GCase (GBA) in human fibroblast cell line GM10915 harboring the L444P GBA mutation (Homo sapiens, UniProt P04062, L483P)
T1 construct: Human fibroblast cell line GM10915 harboring the L444P GBA mutation; host or cells: GM10915 human fibroblasts
T1 sequence (P04062 40-536 L483P): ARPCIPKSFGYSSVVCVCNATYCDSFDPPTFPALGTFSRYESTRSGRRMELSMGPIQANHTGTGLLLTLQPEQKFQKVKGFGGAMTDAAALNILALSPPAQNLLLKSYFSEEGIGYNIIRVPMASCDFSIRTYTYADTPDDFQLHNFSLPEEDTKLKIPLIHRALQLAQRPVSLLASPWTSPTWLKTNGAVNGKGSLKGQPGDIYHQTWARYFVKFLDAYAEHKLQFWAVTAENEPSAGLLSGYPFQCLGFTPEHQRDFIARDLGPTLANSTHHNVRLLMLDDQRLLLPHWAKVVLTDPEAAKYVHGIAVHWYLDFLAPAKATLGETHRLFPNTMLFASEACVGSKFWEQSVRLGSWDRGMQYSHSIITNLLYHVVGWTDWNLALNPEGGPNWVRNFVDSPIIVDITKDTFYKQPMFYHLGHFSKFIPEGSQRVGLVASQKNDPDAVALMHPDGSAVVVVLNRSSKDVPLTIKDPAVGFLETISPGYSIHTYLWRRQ
Assay: GCase activity assay (4-MUG substrate, normalised to crystal violet staining) in L444P GBA fibroblasts
Type: cell-based
Details: 5 days exposure; for GBA EC1.5: concentration giving 150% GCase activity (1.5-fold induction), 8-point dose range; for Emax / GBA Emax: maximum percent GCase activity relative to untreated cells in the dose range tested
Procedure: Human fibroblast cell line GM10915 harboring the L444P GBA mutation was obtained from Coriell Biorepositories.
All chemicals (Glacial acetic acid, Glycine, 4-Methylumbelliferyl b-D-glucopyranoside (4-MUG), Sodium acetate trihydrate, Sodium hydroxide, Crystal violet, SDS, Ammonium hydroxide) were obtained from Sigma-Aldrich (Denmark) Compounds tested for GCase activity were dissolved in H2O or DMSO.
The GM10915 cell line was cultured under standard cell culture conditions (37° C. and 5% CO2) in complete DMEM medium supplemented with nonessential amino acids (NEAA), 1% Pen-Strep and 12% FCS. Cells were seeded at a density of 10^4 cells/well in 100 μL complete medium in one black 96-well plate for glucosylceramidase (GCase) activity measurement and in one clear 96-well plate for crystal violet staining to correct for cell density. Crystal violet staining is performed to obtain quantitative information about the relative density of cells adhering to multi-wells plates.
The assay was adapted from Sawkar et al (2002) and briefly described in the following. The day after seeding of cells, the medium was replaced with fresh medium containing the compounds to be tested. Compounds were tested in duplicate and in an 8-point diluted dose range to obtain a dose response. Cells were exposed with compounds for five days. Fresh compound was added every 2-3 days. PBS was included to define the basal level of GCase activity.
Cells were washed three times with 200 μL PBS per well and 50 μL of 2.5 mM 4-MUG buffer (4-MUG dissolved in 0.2 M acetate buffer pH 4.0) was added and the cells were incubated at 37° C., 5% CO2 for 23 hours. The reaction was stopped by adding 150 μL 0.2 M glycine buffer (pH 10.8). Fluorescence was measured with a Varioskan® Flash reader (Thermo Scientific) at an excitation/emission setting of 365/445 nm.
Cells were treated with compounds in a parallel setup identical to the setup to test for GCase activity. At the end of compound treatment, cells were washed once with 200 μL PBS per well and 50 μL 0.1% w/v crystal violet (in H2O) was added. Following 10 min. of incubation, the crystal violet solution was removed, and the cells were washed three times with 200 μL PBS and 100 μL 1% SDS was added to solubilize the stain. The plate was agitated on an orbital shaker for 10-30 min. Absorbance (A) is measured at […] using a Varioskan® Flash reader (Thermo Scientific).
The fluorescence signal (F) derived from the GCase measurement is normalized to the absorbance signal (A) derived from the crystal violet staining. The percent GCase activity resulting from compound treatment is calculated relative to the basal activity obtained from untreated cells.
Maximal effect of compounds (Emax) is determined from the dose response effects as the maximum “Percent GCase activity” achieved in the dose range tested.

GBA EC1.5 [µM] | Emax [%] | GBA Emax [%] | SMILES
36 | 232 | – | CC1(C2=NOCC(CN3CCCCC3)O2)CNC1 (racemic) [compound 549, rac-3-(3-methylazetidin-3-yl)-5-(piperidin-1-ylmethyl)-5,6-dihydro-1,4,2-dioxazine]
15 | 270 | – | COC1CCN(C)CC1C1=NOCC(CN2CCCCC2)O1 (racemic) [compound 700, rac-3-(4-methoxy-1-methylpiperidin-3-yl)-5-(piperidin-1-ylmethyl)-5,6-dihydro-1,4,2-dioxazine]
16 | 283 | – | CC(N)C(=O)N1CCC(C2=NOCC(CN3CCCCC3)O2)CC1 (racemic) [compound 748, rac-2-amino-1-(4-(5-(piperidin-1-ylmethyl)-5,6-dihydro-1,4,2-dioxazin-3-yl)piperidin-1-yl)propan-1-one]
50 | 107 | – | CC(=O)N1CCCC1C1=NOCC(CN2CCCCC2)O1 (stereo not shown) [compound 692]
10 | 242 | – | CC(C)N1CCC(C2=NOCC(CN3CCCCC3)O2)CC1 (racemic) [compound 719, rac-3-(1-isopropylpiperidin-4-yl)-5-(piperidin-1-ylmethyl)-5,6-dihydro-1,4,2-dioxazine]
50 | 117 | – | O[C@@H]1CC[C@@H](C2=NOCC(CN3CCCCC3)O2)C1 (stereo partly shown) [compound 704]
40 | 183 | – | COc1cncc(CNCCC2=NOCC(CN3CCCCC3)O2)c1 (racemic) [compound 806, rac-N-((5-methoxypyridin-3-yl)methyl)-2-(5-(piperidin-1-ylmethyl)-5,6-dihydro-1,4,2-dioxazin-3-yl)ethan-1-amine]
38 | 136 | – | CN(C)[C@H]1CNC[C@H]1C1=NOCC(CN2CCCCC2)O1 (mixture of isomers) [compound 766, rac-rel-cis-(3R,4R)—N,N-dimethyl-4-(5-(piperidin-1-ylmethyl)-5,6-dihydro-1,4,2-dioxazin-3-yl)pyrrolidin-3-amine]
50 | 112 | – | c1cnc(N2CCC(C3=NOCC(CN4CCCCC4)O3)C2)nc1 (stereo not shown) [compound 693]
7 | 187 | – | CN(C)[C@H]1CC[C@@H](C2=NOCC(CN3CCCCC3)O2)CC1 (relative stereo) [compound 569, rac-rel-cis-(1S,4S)—N,N-dimethyl-4-(5-(piperidin-1-ylmethyl)-5,6-dihydro-1,4,2-dioxazin-3-yl)cyclohexan-1-amine]
5 | – | 204 | C1CCN(CC2CON=C([C@]34CCC[C@H]3NCC4)O2)CC1 (relative stereo) [compound 469, rac-3-rel-trans-((3aS,6aR)-hexahydrocyclopenta[b]pyrrol-3a(1H)-yl)-5-(piperidin-1-ylmethyl)-5,6-dihydro-1,4,2-dioxazine]
50 | 140 | – | c1ccc(N2CCCC(C3=NOCC(CN4CCCCC4)O3)C2)nc1 (stereo not shown) [compound 661]
4.3 | 201 | – | CN1CCCC(C2=NOCC(CN3CCCCC3)O2)C1 (racemic) [compound 648, rac-3-(1-methylpiperidin-3-yl)-5-(piperidin-1-ylmethyl)-5,6-dihydro-1,4,2-dioxazine]
11 | 271 | – | C1CCN(CC2CON=C(CC3CCCNC3)O2)CC1 (racemic) [compound 554, rac-5-(piperidin-1-ylmethyl)-3-(piperidin-3-ylmethyl)-5,6-dihydro-1,4,2-dioxazine]
28 | 230 | – | CC(C)(C1=NOCC(CN2CCCCC2)O1)C1CCNC1 (racemic) [compound 491, rac-5-(piperidin-1-ylmethyl)-3-(2-(pyrrolidin-3-yl)propan-2-yl)-5,6-dihydro-1,4,2-dioxazine]
17 | 226 | – | C1CCN(CC2CON=C(C3CCNC3)O2)CC1 (racemic) [compound 508, rac-5-(piperidin-1-ylmethyl)-3-(pyrrolidin-3-yl)-5,6-dihydro-1,4,2-dioxazine]
6 | 172 | – | CN1CCCC(C(C)(C)C2=NOCC(CN3CCCCC3)O2)C1 (racemic) [compound 595, rac-3-(2-(1-methylpiperidin-3-yl)propan-2-yl)-5-(piperidin-1-ylmethyl)-5,6-dihydro-1,4,2-dioxazine]
5 | 180 | – | CC1(C)CC(C2=NOCC(CN3CCCCC3)O2)CCN1 (racemic) [compound 705, rac-3-(2,2-dimethyl-4-piperidyl)-5-(1-piperidylmethyl)-5,6-dihydro-1,4,2-dioxazine]
35 | 149 | – | Cn1ncc(CC2(C3=NOCC(CN4CCCCC4)O3)CCNCC2)n1 (stereo not shown) [compound 507]
50 | 120 | – | CN1CCC(C2=NOCC(CN3CCCCC3)O2)CC1=O (stereo not shown) [compound 676]
28 | 212 | – | CC(C)C1ON=C(C2CCNC2)OC1CN(C)C (racemic) [compound 713, rac-1-(6-isopropyl-3-(pyrrolidin-3-yl)-5,6-dihydro-1,4,2-dioxazin-5-yl)-N,N-dimethylmethanamine]
50 | 146 | – | CC(=O)NC1CCNCC1C1=NOCC(CN2CCCCC2)O1 (stereo not shown) [compound 671]
5 | 194 | – | c1nc(C2CCNCC2)sc1C1=NOCC(CN2CCCCC2)O1 (stereo not shown) [compound 874]
7 | – | 203 | CC1(C2=NOC[C@@H](CN3CCCCC3)O2)CCNCC1 [compound 886]
50 | 109 | – | CN(C)C(=O)N1CCC(C2=NOCC(CN3CCCCC3)O2)CC1 (stereo not shown) [compound 684]
6 | 181 | – | Fc1cncc(CC2(C3=NOCC(CN4CCCCC4)O3)CCNCC2)c1 (racemic) [compound 528, rac-3-(4-((5-fluoropyridin-3-yl)methyl)piperidin-4-yl)-5-(piperidin-1-ylmethyl)-5,6-dihydro-1,4,2-dioxazine]
50 | 113 | – | CC(=O)N1CCC(C2=NOCC(CN3CCCCC3)O2)CC1 (stereo not shown) [compound 683]
8 | 244 | – | CC1CC(C2=NOCC(CN3CCCCC3)O2)CN1 (racemic) [compound 560, rac-3-(5-methylpyrrolidin-3-yl)-5-(piperidin-1-ylmethyl)-5,6-dihydro-1,4,2-dioxazine]
9 | 265 | – | CN1CCC(C2=NOCC(CN3CCCCC3)O2)CC1 (racemic) [compound 770, rac-3-(1-methylpiperidin-4-yl)-5-(piperidin-1-ylmethyl)-5,6-dihydro-1,4,2-dioxazine]
